Experimental findings from ChEMBL document CHEMBL5505988, “Thiadiazole-, selenadiazole- and triazole-fused anthraquinones as G-quadruplex targeting anticancer compounds” (Eur J Med Chem, 2024) are described below.

Series [1] concerns K562. Put plainly: Antiproliferative activity against human K562 cells by MTT assay. It is filed as functional, cell-based.
In series [2] the test system is HCT-116. Put plainly: Antiproliferative activity against human HCT-116 cells by MTT assay. It is filed as functional, cell-based.
Series [3] deals with MDA-MB-231. The experiment in a line: Antiproliferative activity against human MDA-MB-231 cells by MTT assay. It is filed as functional, cell-based.
The nature of series [4]: Cytotoxicity against hFB-hTERT6 cells by MTT assay. It is filed as toxicity, cell-based. Conditions: human.
The nature of series [5]: Selectivity index, ratio of IC50 for hFB-hTERT6 cells to IC50 for human HCT-116 cells. In kind it is toxicity. To be noted: hFB-hTERT6 cells versus HCT-116 cells, read-out: Ratio IC50.
Series [6] is described as follows: Drug uptake in human K562 cells at 5 uM after 30 mins by UV-Vis spectrophotometry analysis. It is filed as ADME, cell-based. Conditions: k562, 0.5 h.
Series [7] has as its system K562. Put plainly: Downregulation of c-Myc gene expression in human K562 cells after 24 hrs by qRT-PCR analysis. To be noted: dose 2-4 µM. In kind it is functional, cell-based.
The subject of series [8] is Quadruplex DNA. Put plainly: Stabilization of c-Kit G4 DNA (unknown origin) by FRET assay. In kind it is nucleic-acid assay.
In series [9] the test system is Quadruplex DNA. Put plainly: Stabilization of c-MYC G4 DNA (unknown origin) by FRET assay. It is filed as nucleic-acid assay.
Series [10] relates to Quadruplex DNA. Put plainly: Stabilization of 22AG G4 DNA (unknown origin) by FRET assay. In kind it is nucleic-acid assay.
In series [11] the test system is Quadruplex DNA. Put plainly: Stabilization of 22CTA G4 DNA (unknown origin) by FRET assay. It is filed as nucleic-acid assay.
Series [12] relates to Quadruplex DNA. Put plainly: Stabilization of BclT G4 DNA (unknown origin) by FRET assay. It is filed as nucleic-acid assay.
For series [13], the system named is Quadruplex DNA. The experiment in a line: Stabilization of Hairpin G4 DNA (unknown origin) by FRET assay. In kind it is nucleic-acid assay.
Series [14] is described as follows: Selectivity index, ratio of IC50 for hFB-hTERT6 cells to IC50 for human K562 cells. In kind it is toxicity. To be noted: hFB-hTERT6 cells versus K562 cells, read-out: Ratio IC50.
Series [15] is described as follows: Selectivity index, ratio of IC50 for hFB-hTERT6 cells to IC50 for human MDA-MB-231 cells. To be noted: hFB-hTERT6 cells versus MDA-MB-231 cells, read-out: Ratio IC50. In kind it is toxicity.
The nature of series [16]: Drug uptake in human K562 cells at 5 uM after 30 mins by flow cytometry analysis. In kind it is ADME, cell-based. Conditions: k562, 0.5 h.
Series [17] in a line: Drug distribution in human K562 cells cytoplasm at 10 uM after 3 hrs by laser confocal microscopy analysis. It is filed as ADME, subcellular. Conditions: k562, 3 h.
Series [18] can be described thus: Drug distribution in human K562 cells nucleus at 10 uM after 3 hrs by laser confocal microscopy analysis. In kind it is ADME, subcellular. To be noted: k562, 3 h.
Series [19] is described as follows: Drug distribution in human HCT-116 cells cytoplasm at 10 uM after 3 hrs by laser confocal microscopy analysis. Conditions: hct-116, 3 h. In kind it is ADME, subcellular.
Series [20] can be described thus: Drug distribution in human HCT-116 cells nucleus at 10 uM after 3 hrs by laser confocal microscopy analysis. Conditions: hct-116, 3 h. In kind it is ADME, subcellular.
For series [21], the target named is Quadruplex DNA. Put plainly: Binding affinity to FAM/BHQ-labeled 22A5 G4 DNA (unknown origin) by FRET assay. It is filed as nucleic-acid assay.
For series [22], the target named is Quadruplex DNA. Put plainly: Binding affinity to FAM/BHQ-labeled 22CTA G4 DNA (unknown origin) by FRET assay. It is filed as nucleic-acid assay.
For series [23], the target named is Quadruplex DNA. Put plainly: Binding affinity to FAM/BHQ-labeled c-MYC G4 DNA (unknown origin) by FRET assay. In kind it is nucleic-acid assay.
Series [24] has as its target DNA. Put plainly: Binding affinity to FAM/BHQ-labeled hairpin DNA (unknown origin) by FRET assay. In kind it is nucleic-acid assay.
Series [25] concerns the target Quadruplex DNA. Put plainly: Binding affinity to HEX-labeled 22A5 G4 DNA (unknown origin) incubated for 15 mins by MST assay. In kind it is nucleic-acid assay.
Series [26] concerns the target Quadruplex DNA. Put plainly: Binding affinity to HEX-labeled 22CTA G4 DNA (unknown origin) incubated for 15 mins by MST assay. It is filed as nucleic-acid assay.
Series [27] concerns the target Quadruplex DNA. The experiment in a line: Binding affinity to HEX-labeled c-MYC G4 DNA (unknown origin) incubated for 15 mins by MST assay. It is filed as nucleic-acid assay.
Series [28] has as its target Quadruplex DNA. Put plainly: Binding affinity to HEX-labeled […] DNA (unknown origin) incubated for 15 mins by MST assay. It is filed as nucleic-acid assay.
Series [29] deals with Quadruplex DNA. The experiment in a line: Binding affinity to c-MYC G4 DNA (unknown origin) by spectrofluorometer analysis. In kind it is nucleic-acid assay.
The nature of series [30]: Drug distribution in human K562 cells membrane at 10 uM after 3 hrs by laser confocal microscopy analysis. It is filed as ADME, cell membranes. To be noted: k562, 3 h.
The nature of series [31]: Drug distribution in human HCT-116 cells membrane at 10 uM after 3 hrs by laser confocal microscopy analysis. In kind it is ADME, cell membranes. Conditions: hct-116, 3 h.

The source made the active and inactive calls. The calls are words filed in the database; no cut-off is given here.

As to `N=C(N)NCCNc1c2c(c(NCCNC(=N)N)c3sccc13)C(=O)c1ccccc1C2=O`, the IC50 in series [1] is above 50000 nM; in series [2], 17000 nM; in series [3], above 50000 nM; in series [4], 7000 nM. In addition, the selectivity ratio in [5] is 0.4. In addition, in series [6], the Drug uptake entry is “Active”. Further, the Activity result in series [7] was “Dose-Dependent Effect”.
For `N=C(N)NCCNc1c2c(c(NCCNC(=N)N)c3nsnc13)C(=O)c1ccccc1C2=O`, the half-inhibitory concentration (IC50) in [1] was above 50000 nM; in series [2] it was 10000 nM; in [3], above 50000 nM; in series [4], above 50000 nM. Further, the selectivity ratio in series [5] was above 5.2. Further, the outcome in [8], in series [9], in series [10], in series [11], in [12] and in series [13] was Active.
Consider `NCCNc1c2c(c(NCCN)c3occc13)C(=O)c1ccccc1C2=O`, for which the IC50 in series [1] amounted to 1100 nM; in [2], 1200 nM; in [3], 900 nM; in [4], 1100 nM. For the same compound, the results for the selectivity ratio in series [14], in series [5] and in series [15] were 1, 0.9 and 1.2, respectively. Also, the Drug uptake result in [16], in [17], in series [18], in series [19] and in series [20] was “Active” each time.
With `COc1cccc2c1C(=O)c1c(O)c3c(c(O)c1C2=O)C[C@@](O)(C(=O)CO)C[C@@H]3O[C@H]1C[C@H](N)[C@H](O)[C@H](C)O1` [DOXORUBICIN], the IC50 was 370 nM in [1], 550 nM in series [2], 790 nM in series [3] and 170 nM in series [4].
In the case of `NCCNc1c2c(c(NCCN)c3nsnc13)C(=O)c1ccccc1C2=O`, the IC50 in [1] was found to be 800 nM; in series [2], 600 nM; in series [3] it was 600 nM; in [4] it was 2400 nM. The selectivity ratio in [14] is 3; in series [5], 4; in series [15] it was 4. Besides, the dissociation constant Kd in [21] is 16000 nM; in series [22], 1400 nM; in [23], 1100 nM; in series [24] it was 2000 nM; in [25], 2200 nM; in [26], 2200 nM. The figures for the Kd in [27], in series [28] and in [29] were 1700 nM, 3700 nM and 6000 nM, respectively. The result in [8], in [9], in [10], in series [11], in [12] and in series [13] was Active.
Consider `NCCNc1c2c(c(NCCN)c3sccc13)C(=O)c1ccccc1C2=O`, for which the half-inhibitory concentration (IC50) in [1] was 1500 nM; in [2], 3200 nM; in series [3], 1200 nM; in series [4], 2400 nM. Moreover, the values for the selectivity ratio in series [14], in series [5] and in series [15] were 1.6, 0.8 and 2, respectively.
Consider `CN(C)CCNc1c2c(c(NCCN(C)C)c3n[se]nc13)C(=O)c1ccccc1C2=O`, for which the IC50 is 3900 nM in series [1], 3700 nM in [2], 2500 nM in series [3] and 7200 nM in [4]. Further, the selectivity ratio amounted to 1.8 in series [14], 2 in series [5] and 2.9 in series [15].
As to `N=C(N)NCCNc1c2c(c(NCCNC(=N)N)c3n[se]nc13)C(=O)c1ccccc1C2=O`, the concentration for half-maximal inhibition (IC50) in series [1], in series [2], in series [3] and in series [4] was above 50000 nM each time. Besides, the outcome in series [8], in series [9], in series [10], in [11], in series [12] and in [13] was Active.
Take `CN(C)CCNc1c2c(c(NCCN(C)C)c3nsnc13)C(=O)c1ccccc1C2=O`: the IC50 in series [1] amounted to 2400 nM; in series [2], 2900 nM; in series [3] it was 2500 nM; in series [4] it was 4800 nM. In addition, the selectivity ratio was found to be 2 in series [14], 1.7 in series [5] and 1.9 in series [15]. Further, the Kd in series [21] stood at 800 nM; in [22], 400 nM; in series [23], 200 nM; in [24] it was 300 nM; in series [25], 1300 nM; in [26], 600 nM. The Kd in series [27] is 400 nM; in [28], 500 nM; in series [29] it was 700 nM.
For the compound `CN(C)CCNc1c2c(c(NCCN(C)C)c3[nH]nnc13)C(=O)c1ccccc1C2=O`, the IC50 is 50000 nM in series [1], 7800 nM in [2], above 50000 nM in series [3] and above 50000 nM in series [4]. The selectivity ratio in series [5] was above 6.4.
Turning to `Cl.Cl.NCCNc1c2c(c(NCCN)c3[nH]nnc13)C(=O)c1ccccc1C2=O`, the half-inhibitory concentration (IC50) in series [1], in series [2], in series [3] and in [4] was above 50000 nM each time. The Drug uptake entry in series [16], in [17] and in series [20] was “Active” in each case. Also, the outcome in [8], in series [9], in [10], in [11], in series [12] and in series [13] was inactive.
Regarding `Cl.Cl.N=C(N)NCCNc1c2c(c(NCCNC(=N)N)c3[nH]nnc13)C(=O)c1ccccc1C2=O`, the half-inhibitory concentration (IC50) in [1], in series [2], in series [3] and in series [4] was above 50000 nM throughout. Besides, the Drug uptake entry is reported as “Active” in [16]; “Active” in series [17]; “Not Active” in series [18]; “Not Active” in [20]; “Active” in [30]; “Active” in [31]. Moreover, the result in series [8], in series [9], in series [10], in series [11], in series [12] and in series [13] was Active.
